From ChEMBL document CHEMBL4651402, “Screening of ~5500 FDA-approved drugs and clinical candidates for anti-SARS-CoV-2 activity” (2021)
Where a name gives a salt, the structure may show the parent alone.

System: SARS-CoV-2
Assay: microbe, parasite or virus in culture
Conditions: Severe acute respiratory syndrome coronavirus 2, Vero C1008, 48 h

NCC(=O)CCC(=O)O [AMINOLEVULINIC ACID]
IC50: > 20 µM | IC50 (read-out: pIC50 (converted)): > 20 µM

C=CCn1c(N)cc(=O)n(CC)c1=O [AMINOMETRADINE]
IC50: > 20 µM | IC50 (read-out: pIC50 (converted)): > 20 µM

CC(CC(C(N)=O)(c1ccccc1)c1ccccc1)N(C)C (stereo not given) [AMINOPENTAMIDE SULFATE]
IC50: > 20 µM | IC50 (read-out: pIC50 (converted)): > 20 µM

CN(C)CC(CN1c2ccccc2Sc2ccccc21)N(C)C (stereo not given) [AMINOPROMAZINE]
IC50: > 20 µM | IC50 (read-out: pIC50 (converted)): > 20 µM

Nc1nc(N)c2nc(CNc3ccc(C(=O)N[C@@H](CCC(=O)O)C(=O)O)cc3)cnc2n1 [AMINOPTERIN]
IC50: > 20 µM | IC50 (read-out: pIC50 (converted)): > 20 µM

Cc1c(N(C)C)c(=O)n(-c2ccccc2)n1C [AMINOPYRINE]
IC50: > 20 µM | IC50 (read-out: pIC50 (converted)): > 20 µM

NC1=NCC(c2ccccc2)O1 (stereo not given) [AMINOREX]
IC50: > 100 µM | IC50 (read-out: pIC50 (converted)): > 100 µM

Nc1ccc(C(=O)O)c(O)c1 [AMINOSALICYLIC ACID]
IC50: > 20 µM | IC50 (read-out: pIC50 (converted)): > 20 µM

Nc1nccs1 [AMINOTHIAZOLE]
IC50: > 20 µM | IC50 (read-out: pIC50 (converted)): > 20 µM

Nc1nc(N)c(-c2ccccc2)s1 [AMIPHENAZOLE]
IC50: > 20 µM | IC50 (read-out: pIC50 (converted)): > 20 µM

CN(C)CCCO[C@@H]1[C@H]2OC(C)(C)O[C@H]2O[C@@H]1[C@H](O)CO [AMIPRILOSE]
IC50: > 20 µM | IC50 (read-out: pIC50 (converted)): > 20 µM

C=C(C)Cn1c(N)cc(=O)n(C)c1=O [AMISOMETRADINE]
IC50: > 20 µM | IC50 (read-out: pIC50 (converted)): > 20 µM

CCN1CCCC1CNC(=O)c1cc(S(=O)(=O)CC)c(N)cc1OC (stereo not given) [AMISULPRIDE]
IC50: > 20 µM | IC50 (read-out: pIC50 (converted)): > 20 µM

CC(=O)Nc1ccc(/C=N/NC(N)=S)cc1 [AMITHIOZONE]
IC50: > 20 µM | IC50 (read-out: pIC50 (converted)): > 20 µM

CN(C)CCC=C1c2ccccc2CCc2ccccc21 [AMITRIPTYLINE]
IC50: > 20 µM | IC50 (read-out: pIC50 (converted)): > 20 µM

CCOC(=O)C1=C(COCCN)NC(C)=C(C(=O)OC)C1c1ccccc1Cl (stereo not given) [AMLODIPINE]
IC50: > 20 µM | IC50 (read-out: pIC50 (converted)): > 20 µM

CCC1(CCC(C)C)C(=O)NC(=O)NC1=O [AMOBARBITAL]
IC50: > 20 µM | IC50 (read-out: pIC50 (converted)): > 20 µM

CCN(CC)Cc1cc(Nc2ccnc3cc(Cl)ccc23)ccc1O [AMODIAQUINE]
IC50: > 20 µM | IC50 (read-out: pIC50 (converted)): > 20 µM

COc1cc(C(=O)OC(COCCC(C)C)CN2CCOCC2)cc(OC)c1OC (stereo not given) [AMOPROXAN]
IC50: > 20 µM | IC50 (read-out: pIC50 (converted)): > 20 µM

CCC(C)(C)c1ccc(CC(C)CN2C[C@@H](C)O[C@@H](C)C2)cc1 (stereo not given in full) [AMOROLFINE]
IC50: > 20 µM | IC50 (read-out: pIC50 (converted)): > 20 µM

Clc1ccc2c(c1)C(N1CCNCC1)=Nc1ccccc1O2 [AMOXAPINE]
IC50: > 20 µM | IC50 (read-out: pIC50 (converted)): > 20 µM

CC1(C)S[C@@H]2[C@H](NC(=O)[C@H](N)c3ccc(O)cc3)C(=O)N2[C@H]1C(=O)O [AMOXICILLIN]
IC50: > 20 µM | IC50 (read-out: pIC50 (converted)): > 20 µM

CCNC(=O)N1CCN(CCCC(c2ccc(F)cc2)c2ccc(F)cc2)CC1 [AMPEROZIDE]
IC50: > 20 µM | IC50 (read-out: pIC50 (converted)): > 20 µM

CC1(C)S[C@@H]2[C@H](NC(=O)[C@H](N)c3ccccc3)C(=O)N2[C@H]1C(=O)O [AMPICILLIN]
IC50: > 20 µM | IC50 (read-out: pIC50 (converted)): > 20 µM

CCOC(=O)OC(C)OC1=C(C(=O)Nc2ccccn2)N(C)S(=O)(=O)c2ccccc21 (stereo not given) [AMPIROXICAM]
IC50: > 20 µM | IC50 (read-out: pIC50 (converted)): > 20 µM

CCN(CC)CC(C)(C)COC(=O)C(CO)c1ccccc1 (stereo not given) [AMPROTROPINE]
IC50: > 20 µM | IC50 (read-out: pIC50 (converted)): > 20 µM

CCCc1cc2c(O)c(C(=O)OC)cnc2cc1N(CC)CC [AMQUINATE]
IC50: > 20 µM | IC50 (read-out: pIC50 (converted)): > 20 µM

CC(=O)[C@]1(N)Cc2c(O)c3c(c(O)c2[C@@H](O[C@H]2C[C@H](O)[C@H](O)CO2)C1)C(=O)c1ccccc1C3=O [AMRUBICIN]
IC50: > 20 µM | IC50 (read-out: pIC50 (converted)): > 20 µM

COc1cc(NS(C)(=O)=O)ccc1Nc1c2ccccc2nc2ccccc12 [AMSACRINE]
IC50: > 20 µM | IC50 (read-out: pIC50 (converted)): > 20 µM

S=C(NCc1ccc2c(c1)OCO2)N1CCN(c2ncnc3c2oc2ccccc23)CC1 [AMUVATINIB]
IC50: > 20 µM | IC50 (read-out: pIC50 (converted)): > 20 µM

CCC(C)(C)O [AMYLENE HYDRATE]
IC50: > 20 µM | IC50 (read-out: pIC50 (converted)): > 20 µM

CCCCCc1ccc(C)cc1O [AMYLMETACRESOL]
IC50: > 20 µM | IC50 (read-out: pIC50 (converted)): > 20 µM

CCC(C)(CN(C)C)OC(=O)c1ccccc1 (stereo not given) [AMYLOCAINE]
IC50: > 20 µM | IC50 (read-out: pIC50 (converted)): > 20 µM

CCCC(=O)OCOC(=O)C(C)(C)C [AN-9]
IC50: > 20 µM | IC50 (read-out: pIC50 (converted)): > 20 µM

c1cncc([C@@H]2CCCCN2)c1 [ANABASINE]
IC50: > 20 µM | IC50 (read-out: pIC50 (converted)): > 20 µM

COc1cc(F)c(C(C)C)cc1-c1ccc(C(F)(F)F)cc1CN1C(=O)O[C@H](c2cc(C(F)(F)F)cc(C(F)(F)F)c2)[C@@H]1C [ANACETRAPIB]
IC50: > 20 µM | IC50 (read-out: pIC50 (converted)): > 20 µM

O=C1CN2Cc3c(ccc(Cl)c3Cl)N=C2N1 [ANAGRELIDE]
IC50: > 20 µM | IC50 (read-out: pIC50 (converted)): > 20 µM

CCCCC/C=C\C/C=C\C/C=C\C/C=C\CCCC(=O)NCCO [ANANDAMIDE]
IC50: > 20 µM | IC50 (read-out: pIC50 (converted)): > 20 µM

N=c1ccn2c(n1)O[C@H]1[C@H](O)[C@@H](CO)O[C@H]12 [ANCITABINE]
IC50: > 20 µM | IC50 (read-out: pIC50 (converted)): > 20 µM

C[C@]12CCC(=O)C=C1CC[C@@H]1[C@@H]2CC[C@]2(C)C(=O)CC[C@@H]12 [ANDROSTENEDIONE]
IC50: > 20 µM | IC50 (read-out: pIC50 (converted)): > 20 µM
